Results reported in US5919464A, “Treatment of aberrant cellular states with biomodulators” (University of New Mexico, priority 1993, dated 1999).
“Also recorded” adds a separate entry of the source.

Assays:
canine glioma cells [1] = experiment: thymidine incorporation (I50%) of canine glioma cells; format: cell-based; conditions: Canis lupus familiaris, Glioma cell
Protocol: (§1) Cytotoxicity was determined as a function of simple survival (T50%), adherence (ADH50%) and thymidine incorporation (I50%) of the cells.
Estimates of the I50% of the various drugs tested on thymidine incorporation of canine glioma cells in culture.

canine glioma cells [2] = experiment: canine glioma generation times, Compound IIe'; format: cell-based
Protocol: The cells were harvested every 72 hours after the controls had reached 85% confluency. Generation time (Tg) was determined as the number of: hours required for the cell population to double.
Mean of triplicate determinations. Canine glioma cells were grown under conditions to promote exponential growth characteristics; 2×10^5cells in a T-25 flask. The cells were harvested every 72 hours after the controls had reached approximately 85% confluency. The drug was added at the initiation of culture in DMSO, the control cultures had just DMSO. The drug concentration was adjusted with DMSO so that the final concentration of DMSO was always 0.5%.

[3] = tested on: human colon carcinoma cell line (LS-174); experiment: LS-174 generation times, Compound IIe'; format: cell-based
Protocol: The procedure of Example VA, above, was repeated except a human colon carcinoma cell line (LS-174) was used instead of the canine glioma cell line.
Mean of triplicate determinations. LS-174 cells (human colon carcinoma) were grown under conditions to promote exponential growth characteristics; 2×10^5 cells in a T-25 flask. The cells were harvested every 72 hours after the controls had reached approximately 85% confluency. The drug was added at the initiation of culture in DMSO, the control cultures had just DMSO. The drug concentration was adjusted with DMSO so that the final concentration of DMSO was always 0.5%.

HMGCoA reductase [4] = biological target: T1, HMGCoA reductase (Rattus norvegicus, UniProt P51639); experiment: HMG-CoA reductase inhibition, ED50; format: in vivo; parameters: from tissue; host or cells: whole animal (in vivo dose in μg/kg); conditions: HMG-CoA reductase inhibitor
T1 sequence (P51639 1-887): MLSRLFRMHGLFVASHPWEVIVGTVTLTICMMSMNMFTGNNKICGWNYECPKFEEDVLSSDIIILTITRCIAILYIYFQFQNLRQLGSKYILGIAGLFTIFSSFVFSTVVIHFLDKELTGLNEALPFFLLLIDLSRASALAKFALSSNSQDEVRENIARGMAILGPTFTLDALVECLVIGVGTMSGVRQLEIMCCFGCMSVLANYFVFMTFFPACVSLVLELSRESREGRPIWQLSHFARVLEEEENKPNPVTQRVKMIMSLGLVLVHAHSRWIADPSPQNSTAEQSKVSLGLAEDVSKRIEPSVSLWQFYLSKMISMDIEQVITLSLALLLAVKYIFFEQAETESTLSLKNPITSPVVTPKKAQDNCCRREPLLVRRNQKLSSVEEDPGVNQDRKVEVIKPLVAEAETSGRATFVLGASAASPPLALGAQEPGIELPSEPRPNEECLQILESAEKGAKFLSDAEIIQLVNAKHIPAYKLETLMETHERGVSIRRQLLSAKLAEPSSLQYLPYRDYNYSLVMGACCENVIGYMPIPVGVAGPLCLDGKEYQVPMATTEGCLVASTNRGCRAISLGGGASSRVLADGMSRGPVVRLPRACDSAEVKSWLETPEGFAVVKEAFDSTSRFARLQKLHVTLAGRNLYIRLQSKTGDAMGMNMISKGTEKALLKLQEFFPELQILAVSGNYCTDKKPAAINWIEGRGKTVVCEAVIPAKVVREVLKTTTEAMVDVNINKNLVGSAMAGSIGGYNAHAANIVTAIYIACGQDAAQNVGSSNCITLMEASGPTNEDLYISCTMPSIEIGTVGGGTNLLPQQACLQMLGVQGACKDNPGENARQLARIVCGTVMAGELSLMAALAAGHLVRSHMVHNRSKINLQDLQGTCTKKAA

HMGCoA reductase [5] = biological target: T1, HMGCoA reductase; experiment: inhibition of rat liver HMGCoA reductase activity; format: biochemical; parameters: from tissue; host or cells: rat liver; conditions: read-out: IC50 HMG-CoA reductase
Source text: reductase activity; data obtained according to Example IA.

canine glioma cells [6] = experiment: cytotoxicity, simple survival (T50%) of canine glioma cells; format: cell-based; conditions: Canis lupus familiaris, Glioma cell, read-out: T 50% (50% inhibitory concentration on simple survival)
Protocol: as §1
(§2) Estimates of the 50% inhibitory concentrations of the various drugs tested on simple survival (T50%) and adherence (ADH50%) for canine glioma cells.

[7] = tested on: human peripheral blood leukocytes (HPBLs); experiment: HPBL 3H-thymidine incorporation (proliferation); format: cell-based; parameters: reference not given here
Source text: C. […] This model is used to correlate the effects of biomodulators on the expression of immune response in vitro. The plaque assay disclosed in this reference is used for the determination of the effect of biomodulators on the specificity, class and subclass of individual clones.
A. Purification of PWM and separation of the differentiative and proliferative functions Pokeweed Mitogen (PWM) and three of its isomitogens, Pa-1 and Pa-5, which are primarily differentiative in nature, and Pa-2 which is primarily proliferative, were prepared according to the method of Waxdal, supra, except that the iso-mitogens were finally purified by isoelectric focusing.

canine glioma cells [8] = experiment: adherence (ADH50%) of canine glioma cells; format: cell-based; conditions: Canis lupus familiaris, Glioma cell
Protocol: as §1, §2

[9] = biomodulator assay (general); conditions: in words
Source text: All biomodulators will have at least the following effects, which can be measured as indicated above:
a. Biomodulators cause, at a concentration in the general range of 100 pM-1 μm, the differentiation of lymphocytes. This differentiation can be detected by, for example, the increased production of specific and non-specific antibodies in response to the presence of biomodulator in the culture medium, e.g., according to the HPBL method discussed above in C, or the alteration in the class of antibodies being produced by a cell line, e.g., from IgM to IgG, e.g., according to the method disclosed in the same reference.
b. Biomodulators cause, at a concentration in the general range of 100 pM-1 μm, the alteration of the cell surface oligosaccharide display of IMR-90 cells in culture as discussed in A. above.
Activity in both of these assays is a necessary and sufficient measure of whether or not a given substance is a biomodulator, as defined herein.

TNP-Ficoll = experiment: in vivo antibody (PFC) response to T-independent antigen TNP-Ficoll; parameters: species or system mouse; conditions: in words
Protocol: In this case both IgM and IgG hapten specific responses were recorded as well as non-antigen specific plaque responses (Ig-PFC) using a Protein A coated red blood cell target.
The TNP-Ficoll antigen is administered as the SRBC antigen was above, by i.p. injection and the response assessed by conjugating the TNP hapten directly to the SRBC target, thus obviating any potential "carrier" effect. […] In this case, a third experimental parameter has been added to the study, the production of non-specific immunoglobulin (Ig-PFC). This parameter provides information on the general status of the humoral response regardless of antigen specificity. The TNP-Ficoll antigen does elicit a modest Ig-PFC response but little if any IgG specific response. […] In this case there is a very large specific and non-specific augmentation.

CC(C)OC(=O)C[C@H](O)C[C@@H](O)/C=C/c1c(C(C)C)nc(-c2ccccc2)n1-c1ccc(F)cc1 (relative stereo) [Compound IIe']
IC50 (canine glioma cells [1]; 24 h, first four lines, read-out: I50% (thymidine incorporation)): 50 nM | IC50 (canine glioma cells [1]; 48 h, first four lines, read-out: I50% (thymidine incorporation)): 75 nM | IC50 (canine glioma cells [1]; 48 h, second four lines, read-out: I50% (thymidine incorporation)): 75 nM | IC50 (canine glioma cells [1]; 72 h, first four lines, read-out: I50% (thymidine incorporation)): 80 nM | IC50 (canine glioma cells [1]; 96 h, first four lines, read-out: I50% (thymidine incorporation)): 50 nM | IC50 (canine glioma cells [1]; 96 h, second four lines, read-out: I50% (thymidine incorporation)): 50 nM | IC50 (canine glioma cells [1]; text to Table V, read-out: I50% (thymidine incorporation into DNA)): 50 to 80 nM | IC50 (canine glioma cells [1]; 24 h, second four lines, read-out: I50% (thymidine incorporation)): 100 nM | IC50 (canine glioma cells [1]; 72 h, second four lines, read-out: I50% (thymidine incorporation)): 30 nM | % Change of Tg (canine glioma cells [2]; 10 nM, 72 × 3 h): 180% | Tg (canine glioma cells [2]; 10 nM, 72 h, control 18.6): 25.3 h | contact inhibition (canine glioma cells [2]; in words): showed evidence of contact inhibition as the cells approached confluency | Tg ([3]; 10 nM, 72 h, control 26.5): 84.9 h | generation time after drug withdrawal ([3]; two passages, in words): the generation time returned to control levels | ED50 (HMGCoA reductase [4]): 0.025 mg/kg | IC50 (HMGCoA reductase [5]): 3 nM | IC50 (canine glioma cells [6]; 24 h): 750 nM | IC50 (canine glioma cells [6]; 72 h): 800 nM | IC50 (canine glioma cells [6]; 96 h): 900 nM | Proliferation ((3H) thymidine incorporation into DNA) [7]: 0.85 | IC50 (canine glioma cells [8]; 24 h): 75 nM | IC50 (canine glioma cells [8]; 72 h): 70 nM | IC50 (canine glioma cells [8]; 96 h): 75 nM

Cc1c(/C=C/C(O)CC(O)CC(=O)O)ccc2c1C(O)CC(C)C2 (stereo not shown) [colletruncoic acid]
biomodulator activity [9]: has been shown to have biomodulator activity

Dextran
PFC response to TNP-Ficoll (TNP-Ficoll): some stimulatory effect; also recorded: marked cellular proliferation but little differentiative response
